The target of assay [1] is T1, human CRF2α receptor (Homo sapiens, UniProt Q13324).
T1 construct: expressed in transfected cells; host or cells: TeloHEAC
T1 sequence (Q13324 1-411): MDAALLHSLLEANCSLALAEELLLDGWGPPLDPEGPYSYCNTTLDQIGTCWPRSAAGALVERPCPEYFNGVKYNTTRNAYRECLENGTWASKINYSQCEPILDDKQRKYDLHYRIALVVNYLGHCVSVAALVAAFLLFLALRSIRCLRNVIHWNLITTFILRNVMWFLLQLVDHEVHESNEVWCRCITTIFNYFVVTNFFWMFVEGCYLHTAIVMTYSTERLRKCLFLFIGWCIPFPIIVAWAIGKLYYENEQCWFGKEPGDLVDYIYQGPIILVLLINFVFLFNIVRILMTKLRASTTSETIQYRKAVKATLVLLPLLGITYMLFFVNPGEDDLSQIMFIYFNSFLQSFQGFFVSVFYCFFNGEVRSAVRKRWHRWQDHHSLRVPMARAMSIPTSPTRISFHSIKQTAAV
Nature of the assay: cAMP agonism at human CRF2 α receptor in TeloHEAC cells (Example 7). It is filed as cell-based. Conditions: cAMP HTRF, TeloHEAC cells stably expressing human CRF2 α. The procedure, abridged:
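Thawed frozen stably transfected cells in HBSS/20 mM HEPES (0% or 0.1% HSA) plus 2 mM IBMX were exposed to compound at 2000 cells/well for 30 min at room temperature. Intracellular cAMP was read by HTRF (665/620 nm ratio) after 1 h lysis; EC50 was derived with 1000 nM urocortin 2 set as 100%.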

Assay [2] deals with T2, CRF1R receptor (Homo sapiens, UniProt P34998).
T2 construct: host or cells: CHO-K1 clone 2
T2 sequence (P34998 24-415): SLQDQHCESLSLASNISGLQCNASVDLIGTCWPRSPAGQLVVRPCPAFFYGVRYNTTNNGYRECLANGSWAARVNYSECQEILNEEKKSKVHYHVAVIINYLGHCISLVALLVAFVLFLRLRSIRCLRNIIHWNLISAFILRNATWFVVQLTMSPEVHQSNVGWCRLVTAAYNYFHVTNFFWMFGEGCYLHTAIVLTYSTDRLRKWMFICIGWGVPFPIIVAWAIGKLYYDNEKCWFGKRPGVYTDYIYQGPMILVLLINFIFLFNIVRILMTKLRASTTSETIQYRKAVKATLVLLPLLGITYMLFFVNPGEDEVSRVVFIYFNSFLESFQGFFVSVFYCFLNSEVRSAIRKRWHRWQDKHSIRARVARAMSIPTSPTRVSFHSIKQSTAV
Nature of the assay: cAMP activity at anti-target CRF1R, CRF1R-overexpression CHO cell line (Example 9). Conditions: CRF1R-overexpression CHO cell line; for Emax: read-out: Emax (%); for EC50: 0% HSA. It is filed as cell-based. As to the method: Cells were grown in a T175 culture flask placed at 37° C. to near confluence in medium (DMEM/10% FBS) and collected in 2 ml vials in cell culture medium containing 10% DMSO in a concentration of 10-50 million cells/ml. Each vial contained 1.8 ml cells. The vials were slowly frozen to −80° C. in isopropanol and then transferred in liquid nitrogen for storage. Prior to use, frozen cells were thawed quickly at 37° C. and washed (5 min at 900 rpm) with 20 ml cell buffer (1×HBSS; 20 mM HEPES; 0% or 0.1% HSA). Cells were resuspended in assay buffer (cell buffer plus 2 mM IBMX) and adjusted to a cell density of 1 million cells/ml. For measurement, 5 μl cells (final […]) and 5 μL of test compound were added to a 384-well plate, followed by incubation for 30 minutes at room temperature.
The CAMP content of cells was determined using a kit from Cisbio Corp. (cat. no. 62AM4PEC) based on HTRF (Homogenous Time Resolved Fluorescence). […] The percent activity value (E %) was calculated by setting 1000 nM of urocortin 2 (UCN2) as 100%.
A CRF1R-overexpression CHO cell line was used in this study.

Setting [3] is: 0% HSA, read-out: EC50 [nM], 0% HSA.
Setting [4] is: 0.1% HSA, read-out: EC50 [nM], 0.1% HSA.

Where two headings read alike, the source gives them in different places. Starred links: 1 amine or outer side, 2 acyl side, 3 side chain; linkers in the order of their positions; H or OH if unused. Non-standard residues stand in square brackets, D forms with d. Residues, ends and D or L forms follow the SMILES beside them. Groups on a side chain read outwards from the residue. *: point of attachment. C18 diacid = O=C(O)CCCCCCCCCCCCCCCCC(=O)*; γGlu = O=C(O)[C@H](CCC(=O)[*:2])N[*:1]; Palmitoyl = CCCCCCCCCCCCCCCC(=O)*; AEEA = NCCOCCOCC(=O)O; Aib = CC(C)(N)C(=O)O

On to `CCCCCCCCCCCCCCCC(=O)N[C@@H](CCC(=O)NCCCC[C@H](NC(=O)[C@H](CC(C)C)NC(=O)[C@H](CCCCN)NC(=O)[C@@H](NC(=O)[C@@H]1CCCN1C(=O)[C@H](NC(=O)[C@H](CC(=O)O)NC(=O)[C@H](CC(C)C)NC(=O)[C@H](CO)NC(=O)[C@H](CC(C)C)NC(=O)[C@@H](NC(=O)[C@@H](N)[C@@H](C)CC)C(C)C)C(C)C)[C@@H](C)O)C(=O)N[C@@H](CCC(N)=O)C(=O)N[C@@H](CCCCN)C(=O)N[C@@H](CC(C)C)C(=O)N[C@@H](CC(C)C)C(=O)N[C@@H](CCCCN)C(=O)N[C@@H](CCC(N)=O)C(=O)N[C@@H](CCC(=O)O)C(=O)N[C@@H](CCCNC(=N)N)C(=O)N[C@@H](CCC(N)=O)C(=O)N[C@@H](CCCNC(=N)N)C(=O)N[C@@H](CCCCN)C(=O)N[C@@H](CCC(=O)O)C(=O)NC(C)(C)C(=O)N[C@@H](CCC(=O)O)C(=O)N[C@@H](CCC(N)=O)C(=O)N[C@@H](C)C(=O)N[C@@H](CCC(=O)O)C(=O)N[C@@H](CCCCN)C(=O)N[C@@H](CC(N)=O)C(=O)N[C@@H](CCCCN)C(=O)N[C@@H](CCCNC(=N)N)C(=O)N[C@H](C(=O)N[C@@H](CC(C)C)C(=O)N[C@@H](CCC(=O)O)C(=O)N[C@@H](CCCNC(=N)N)C(=O)N[C@H](C(N)=O)C(C)C)[C@@H](C)CC)C(=O)O` [compound 21] (H-IVLSLD[dV]PTKLK([γGlu-Palmitoyl])QKLLKQERQRKE[Aib]EQAEKNKRILERV-NH2; N-terminus assumed), for which, in assay [1] (setting [3]), the EC50 (commonly the concentration giving half of the maximal effect) worked out at 0.02 nM. Also, in assay [2], the Emax (as a rule, the greatest response seen or fitted, relative to the assay's reference) turned out to be 59.2%.
On to `CC[C@H](C)[C@H](NC(C)=O)C(=O)N[C@H](C(=O)N[C@@H](CC(C)C)C(=O)N[C@@H](CO)C(=O)N[C@@H](CC(C)C)C(=O)N[C@@H](CC(=O)O)C(=O)N[C@@H](C(=O)N1CCC[C@H]1C(=O)N[C@H](C(=O)N[C@@H](CCCCN)C(=O)N[C@@H](CC(C)C)C(=O)N[C@@H](CCCCNC(=O)COCCOCCNC(=O)COCCOCCNC(=O)CC[C@H](NC(=O)CCCCCCCCCCCCCCCCC(=O)O)C(=O)O)C(=O)N[C@@H](CCC(N)=O)C(=O)N[C@H](C(=O)N[C@@H](CC(C)C)C(=O)N[C@@H](CC(C)C)C(=O)N[C@@H](CCC(=O)O)C(=O)N[C@@H](CCC(N)=O)C(=O)N[C@@H](CCC(=O)O)C(=O)N[C@@H](CCCNC(=N)N)C(=O)N[C@@H](CCC(N)=O)C(=O)N[C@@H](CCC(=O)O)C(=O)NC(C)(C)C(=O)N[C@@H](CCC(=O)O)C(=O)N[C@@H](CCCNC(=N)N)C(=O)N[C@@H](CCC(=O)O)C(=O)N[C@@H](CCC(N)=O)C(=O)N[C@@H](C)C(=O)N[C@@H](CCC(=O)O)C(=O)N[C@H](C(=O)N[C@@H](CC(N)=O)C(=O)N[C@@H](CCCCN)C(=O)N[C@@H](CCC(N)=O)C(=O)N[C@H](C(=O)N[C@@H](CC(C)C)C(=O)N[C@@H](CCC(=O)O)C(=O)N[C@@H](CCC(N)=O)C(=O)N[C@H](C(N)=O)C(C)C)[C@@H](C)CC)[C@@H](C)O)[C@@H](C)CC)[C@@H](C)CC)C(C)C)C(C)C` [compound 160] (Ac-IVLSLD[dV]PIKLK([AEEA-AEEA-γGlu-C18 diacid])QILLEQERQE[Aib]EREQAETNKQILEQV-NH2), for which the EC50 was 8.56 nM in assay [1] (setting [3]), 28.9 nM in assay [1] (setting [4]) and greater than 1000 nM in assay [2]. For the same compound, the Emax in assay [2] was 20.8%.
`CC[C@H](C)[C@H](NC(C)=O)C(=O)N[C@H](C(=O)N[C@@H](CC(C)C)C(=O)N[C@@H](CO)C(=O)N[C@@H](CC(C)C)C(=O)N[C@@H](CC(=O)O)C(=O)N[C@@H](C(=O)N1CCC[C@H]1C(=O)N[C@H](C(=O)N[C@@H](CCCCN)C(=O)N[C@@H](CC(C)C)C(=O)N[C@@H](CCCCNC(=O)COCCOCCNC(=O)COCCOCCNC(=O)CC[C@H](NC(=O)CCCCCCCCCCCCCCCCC(=O)O)C(=O)O)C(=O)N[C@@H](CCC(N)=O)C(=O)N[C@H](C(=O)N[C@@H](CC(C)C)C(=O)N[C@@H](CC(C)C)C(=O)N[C@@H](CCC(=O)O)C(=O)N[C@@H](CCC(N)=O)C(=O)N[C@@H](CCC(=O)O)C(=O)N[C@@H](CCCNC(=N)N)C(=O)N[C@@H](CCC(N)=O)C(=O)N[C@@H](CCC(=O)O)C(=O)NC(C)(C)C(=O)N[C@@H](CCC(=O)O)C(=O)N[C@@H](CCCNC(=N)N)C(=O)N[C@@H](CCC(=O)O)C(=O)N[C@@H](CCC(N)=O)C(=O)N[C@@H](C)C(=O)N[C@@H](CCC(=O)O)C(=O)N[C@@H](CCCCN)C(=O)N[C@@H](CC(N)=O)C(=O)N[C@@H](CCC(=O)O)C(=O)N[C@@H](CCC(N)=O)C(=O)N[C@H](C(=O)N[C@@H](CC(C)C)C(=O)N[C@@H](CCC(=O)O)C(=O)N[C@@H](CCC(N)=O)C(=O)N[C@H](C(N)=O)C(C)C)[C@@H](C)CC)[C@@H](C)CC)[C@@H](C)CC)C(C)C)C(C)C` [compound 161] (Ac-IVLSLD[dV]PIKLK([AEEA-AEEA-γGlu-C18 diacid])QILLEQERQE[Aib]EREQAEKNEQILEQV-NH2): the EC50 in assay [1] (setting [3]) was 36 nM; in assay [1] (setting [4]) it was 977 nM; in assay [2] it was greater than 1000 nM. Further, in assay [2], the maximum response (Emax) stood at 3.42%.
Regarding `CC[C@H](C)[C@H](N)C(=O)N[C@H](C(=O)N[C@@H](CC(C)C)C(=O)N[C@@H](CO)C(=O)N[C@@H](CC(C)C)C(=O)N[C@@H](CC(=O)O)C(=O)N[C@@H](C(=O)N1CCC[C@H]1C(=O)N[C@H](C(=O)N[C@@H](CCCCN)C(=O)N[C@@H](CC(C)C)C(=O)N[C@@H](CCCCNC(=O)COCCOCCNC(=O)COCCOCCNC(=O)CC[C@H](NC(=O)CC[C@H](NC(=O)CCCCCCCCCCCCCCCCC(=O)O)C(=O)O)C(=O)O)C(=O)N[C@@H](CCC(N)=O)C(=O)N[C@H](C(=O)N[C@@H](CC(C)C)C(=O)N[C@@H](CC(C)C)C(=O)N[C@@H](CCCCN)C(=O)N[C@@H](CCC(N)=O)C(=O)N[C@@H](CCC(=O)O)C(=O)N[C@@H](CCCNC(=N)N)C(=O)N[C@@H](CCC(N)=O)C(=O)N[C@@H](CCCCN)C(=O)NC(C)(C)C(=O)N[C@@H](CCC(N)=O)C(=O)N[C@@H](CCCNC(=N)N)C(=O)N[C@@H](CCC(=O)O)C(=O)N[C@@H](CCC(N)=O)C(=O)N[C@@H](C)C(=O)N[C@@H](CCC(=O)O)C(=O)N[C@@H](CCCCN)C(=O)N[C@@H](CC(N)=O)C(=O)N[C@@H](CCCCN)C(=O)N[C@@H](CCC(N)=O)C(=O)N[C@H](C(=O)N[C@@H](CC(C)C)C(=O)N[C@@H](C)C(=O)N[C@@H](CCC(N)=O)C(=O)N[C@H](C(N)=O)C(C)C)[C@@H](C)CC)[C@@H](C)CC)[C@@H](C)CC)C(C)C)C(C)C` [compound 171] (H-IVLSLD[dV]PIKLK([AEEA-AEEA-γGlu-γGlu-C18 diacid])QILLKQERQK[Aib]QREQAEKNKQILAQV-NH2), the EC50 in assay [1] (setting [3]) is 0.17 nM; in assay [1] (setting [4]), 2.62 nM; in assay [2], greater than 1000 nM. The Emax in assay [2] turned out to be 7.54%.
